We go through 22 compounds from patent publication US12173026B2, “PRMT5 inhibitors” (Merck Sharp & Dohme LLC, priority 2018, dated 2024).

This experiment concerns symmetric dimethylation of arginine (SDMA) of PRMT5 substrates in MCF-7 cells. As to the kind of experiment: PRMT5 Cell Target Engagement (TE) Assay. The format is cell-based. The settings on record: Homo sapiens, MCF7, 72 h; MCF-7 cells treated for 3 days; nuclear SDMA by high content imaging; top concentration 10000 nM. The source says:
PRMT5 Cell Target Engagement (TE) Assay
The PRMT5 TE assay is a biomarker assay for identifying compounds that inhibit symmetric dimethylation of arginine (SDMA) of PRMT5 substrates. The following substrates have been reported for PRMT5: Histone H2A and H4 R3, Histone H3 R2, Histone 1-13 R8, spliceosome Sm proteins, ribosomal protein RPS10, p53, FEN1, nucleoplasmin, nucleolin, EGFR and EBNA. The assay will focus on detecting symnetrically dimethylated nuclear proteins using high content imaging technology. Detection of the expression of symmetrically dimethylated nuclear proteins is through a mixture of primary rabbit monoclonal antibodies to SDMA (CST 13222) which in turn recognized by an Alexafluor 488 dye-conjugated anti-rabbit IgG secondary antibody. The IN Cell Analyzer 2200 or Opera-Phenix measures nuclear Alexafluor 488 fluorescent dye intensity that is directly related to the level of expression of symmetrically dimethylated nuclear proteins at the single cell level. Nuclear AF488 dye intensities are compared to the mean value for DMSO treated cells (MIN) to report percent of inhibition for each compound-treated well.
In this assay, the cell potency (EC50) of each compound was determined from a ten point (1:3 serial dilution; top compound concentration of 10000 nM) titration curve using the following outlined procedure. Each well of a BD falcon collagen coated black/clear bottom 384-well plate was seeded with 4000 MCF-7 cells in 30 pal media and allowed to attach for 5 hours. Media is ATCC-formulated Eagle's Minimum Essential Medium, Catalog No. 30-2003. The following components were added to the base medium: 0.01 mg/mL human recombinant insulin; fetal bovine serum to a final concentration of 10%. Additional 30 pal of media containing 2× compounds were added to each well. Cells were treated for 3 days in 37° C. CO2 incubator. On day 3, cells were fixed with Cytofix, permeabilized with 0.4% Triton-X-100/Cytofix, and washed with D-PBS without Ca/Mg. Cells were blocked with Licor Odessey blocking reagent for 1 hour at room temperature, followed by incubation with anti-SDMA (1:1000) antibody at 4° C. overnight. 1° antibody was removed, followed by three washings with DPBS without Ca/Mg and 0.05% Tween20. Hoechst (5 μg/mL), Cell Mask deep stain (1:2000) and Alexa488-conjugated goat anti-rabbit IgG (2 μg/mL) was added for 1 hour at room temperature. A final washing step (three washes) was performed before sealing plate for imaging on in Cell Analyzer 2200 or Opera-Phenix. Images from analyzer were uploaded to Columbus for image analysis. IC50 values were determined by 4 parameters robust fit of percent fluorescence units vs. (Log 10) compound concentrations.

Turning to `Cc1nc(C)c2ccn([C@@H]3O[C@@H]4[C@H](Cc5ccc6cc(Br)c(N)nc6c5)CC[C@]4(O)[C@H]3O)c2n1` [Example 81, (2R,3R,3aS,6S,6aR)-6-((2-ammo-3-bromoquinolin-7-yl)methyl)-2-(2,4-dimethyl-7H-pyrrolo[2,3-d]pyrimidin-7-yl)hexahydro-3aH-cyclcopenta[b]furan-3,3a-diol], a half-maximal response (EC50) required 3.9 nM.

For the compound `Cc1cn([C@@H]2O[C@@H]3[C@H](Cc4ccc5cc(Br)c(N)nc5c4)OC[C@]3(O)[C@H]2O)c2ncnc(N)c12` [Example 135, (2R,3R,3aS,6S,6aR)-6-((2-amino-3-bromoquinolin-7-yl)methyl)-2-(4-amino-5-methyl-7H-pyrrolo[2,3-d]pyrimidin-7-yl)tetrahydrofuro[3,4-b]furan-3,3a(4H)-diol], the EC50 (in general, the midpoint of the concentration-response curve) came to 0.6 nM.

`C[C@]12O[C@@H](n3ccc4c(N)ncnc43)[C@H](O)[C@@]1(O)CC[C@H]2Cc1ccc2cc(F)c(N)nc2c1` [Example 121, (2R,3R,3aS,6S,6aR)-6-((2-amino-3-fluoroquinolin-7-yl)methyl)-2-(4-amino-7H-pyrrolo[2,3-d]pyrimidin-7-yl)-6a-methylhexahydro-3aH-cyclopenta[b]furan-3,3a-diol]: a half-maximal effect (EC50) was put at 1 nM.

Regarding `CNc1ncnc2c1ccn2[C@@H]1O[C@@H]2[C@H](Cc3ccc4cc(F)c(N)nc4c3)CC[C@]2(O)[C@H]1O` [Example 95, (2R,3R,3aS,6S,6aR)-6-((2-amino-3-fluoroquinolin-7-yl)methyl)-2-(4-(methylamino)-7H-pyrrolo[2,3-d]pyrimidin-7-yl)hexahydro-3aH-cyclopenta[b]furan-3,3a-diol], a half-maximal effect (EC50) was put at 47 nM.

Turning to `Cc1cn([C@@H]2C[C@@H]3[C@H](Cc4ccc5cc(Br)c(N)nc5c4)CC[C@]3(O)[C@H]2O)c2ncnc(N)c12` [Example 40, (1S,2R,3aR,4S,6aR)-4-((2-amino-3-bromoquinolin-7-yl)methyl)-2-(4-amino-5-methyl-7H-pyrrolo[2,3-d]pyrimidin-7-yl)hexahydropentalene-1,6a(1H)-diol], a half-maximal response (EC50) required 0.7 nM.

As for `CNc1ncnc2c1ccn2[C@@H]1O[C@@H]2[C@@H](Oc3ccc4cc(Br)c(N)nc4c3)CC[C@]2(O)[C@H]1O` [Example 94, (2R,3R,3aS,6S,6aR)-6-((2-amino-3-bromoquinolin-7-yl)oxy)-2-(4-(methylamino)-7H-pyrrolo[2,3-d]pyrimidin-7-yl)hexahydro-3aH-cyclopenta[b]furan-3,3a-diol], the 50% effective concentration (EC50) is 5.3 nM.

`C[C@@]1(O)[C@@H](COc2ccc3cccnc3c2)O[C@@H](n2ccc3c(N)ncnc32)[C@@H]1O` [Example 99, (2R,3S,4R,5R)-5-(4-amino-7H-pyrrolo[2,3-d]pyrimidin-7-yl)-3-methyl-2-((quinolin-7-yloxy)methyl)tetrahydrofuran-3,4-diol] displayed an EC50 of 202 nM.

Consider `Cc1ncnc2c1ccn2[C@@H]1O[C@@H]2[C@H](Cc3ccc4cc(C(F)F)c(N)nc4c3)CC[C@]2(O)[C@H]1O` [Example 23, (2R,3R,3aS,6S,6aR)-6-((2-amino-3-(difluoromethyl)quinolin-7-yl)methyl)-2-(4-methyl-7H-pyrrolo[2,3-d]pyrimidin-7-yl)hexahydro-3aH-cyclopenta[b]furan-3,3a-diol], for which a half-maximal response (EC50) required 1.5 nM.

Turning to `Nc1nc2cc(C[C@@H]3CC[C@@]4(O)[C@@H]3O[C@@H](n3ccc5c(N)ncnc53)[C@@H]4O)cc(F)c2cc1Cl` [Example 21, (2R,3R,3aS,6S,6aR)-6-[(2-amino-3-chloro-5-fluoroquinolin-7-yl)methyl]-2-(4-amino-7H-pyrrolo[2,3-d]pyrimidin-7-yl)hexahydro-3aH-cyclopenta[b]furan-3,3a-diol], a half-maximal effect (EC50) was put at 0.5 nM.

On to `C[C@]1(COc2ccc3cc(Br)c(N)nc3c2)C[C@@H](n2ccc3c(N)ncnc32)[C@H](O)[C@@H]1O` [Example 100, (1S,2R,3R,5R)-3-(((2-amino-3-bromoquinolin-7-yl)oxy)methyl)-5-(4-amino-7H-pyrrolo[2,3-d]pyrimidin-7-yl)-3-methylcyclopentane-1,2-diol], for which the EC50 was determined as 7.4 nM.

In turn, `Nc1nc2cc(O[C@H]3CC[C@@]4(O)[C@@H]3O[C@@H](n3cc(-c5ccccc5)c5c(N)ncnc53)[C@@H]4O)ccc2cc1Br` [Example 49, (2R,3R,3aS,6S,6aR)-6-[(2-amino-3-bromoquinolin-7-yl)oxy]-2-(4-amino-5-phenyl-7H-pyrrolo[2,3-d]pyrimidin-7-yl)hexahydro-3aH-cyclcopenta[b]furan-3,3a-diol] gave an EC50 of 13 nM.

Turning to `Nc1nc2cc(O[C@H]3CC[C@@]4(O)[C@@H]3O[C@@H](n3cc(F)c5c(N)ncnc53)[C@@H]4O)ccc2cc1Cl` [Example 74, (2R,3R,3aS,6S,6aR)-6-((2-amino-3-chloroquinolin-7-yl)oxy)-2-(4-amino-5-fluoro-7H-pyrrolo[2,3-d]pyrimidin-7-yl)hexahydro-3aH-cyclopenta[b]furan-3,3a-diol], it took 1 nM to reach a half-maximal effect (EC50).

In the case of `Cc1cn([C@@H]2C[C@@H]3[C@H](Cc4cc(F)c5cc(F)c(N)nc5c4)CC[C@]3(O)[C@H]2O)c2ncnc(N)c12` [Example 35, (1S,2R,3aR,4S,6aR)-4-[(2-amino-3,5-difluoroquinolin-7-yl)methyl]-2-(4-amino-5-methyl-7H-pyrrolo[2,3-d]pyrimidin-7-yl)hexahydropentalene-1,6a(1H)-diol], the midpoint of the response, the EC50, lay at 0.8 nM.

Turning to `Nc1nc2cc(C[C@@H]3CC[C@@]4(O)[C@@H]3O[C@@H](n3ccc5c(N)ncnc53)[C@@H]4O)c(F)cc2cc1F` [Example 27], the EC50 came out at 2.8 nM.

In turn, `Nc1nc2cc(C[C@@H]3CC[C@@]4(O)[C@@H]3O[C@@H](n3cc(C(F)F)c5c(N)ncnc53)[C@@H]4O)ccc2cc1F` [Example 51, (2R,3R,3aS,6S,6aR)-2-[4-amino-5-(difluoromethyl)-7H-pyrrolo[2,3-d]pyrimidin-7-yl]-6-[(2-amino-3-fluoroquinolin-7-yl)methyl]hexahydro-3aH-cyclopenta[b]furan-3,3a-diol] came in with a half-maximal effective concentration (EC50) of 2.8 nM.

Compound `Cc1ncnc2c1ccn2[C@@H]1O[C@@H]2[C@H](Cc3ccc4cc(C(F)(F)F)c(N)nc4c3)CC[C@]2(O)[C@H]1O` [Example 88, (2R,3R,3aS,6S,6aR)-6-((2-amino-3-(trifluoromethyl)quinolin-7-yl)methyl)-2-(4-methyl-7H-pyrrolo[2,3-d]pyrimidin-7-yl)hexahydro-3aH-cyclopenta[b]furan-3,3a-diol] gave an EC50 of 25.3 nM.

On to `Nc1ncnc2c1ccn2[C@@H]1O[C@@H]2[C@@H](Oc3ccc4cc5c(nc4c3)NCC5)CC[C@]2(O)[C@H]1O` [Example 75, (2R,3R,3aS,6S,6aR)-2-(4-amino-7H-pyrrolo[2,3-d]pyrimidin-7-yl)-6-((2,3-dihydro-1H-pyrrolo[2,3-b]quinolin-7-yl)oxy)hexahydro-3aH-cyclopenta[b]furan-3,3a-diol], for which it took 5 nM to reach a half-maximal effect (EC50).

With `C#C[C@@]1(O)[C@@H](COc2ccc3cc(Br)c(N)nc3c2)O[C@@H](n2ccc3c(N)ncnc32)[C@@H]1O` [Example 3, (2R,3S,4R,5R)-2-(((2-amino-3-bromoquinolin-7-yl)oxy)methyl)-5-(4-amino-7H-pyrrolo[2,3-d]pyrimidin-7-yl)-3-ethynyltetrahydrofuran-3,4-diol], a half-maximal effect (EC50) was put at 20 nM.

On to `Nc1nc2cc(CC3OC[C@@]4(O)C3C[C@@H](n3ccc5c(N)ncnc53)[C@@H]4O)ccc2cc1Br` (stereo partly shown) [Example 132], for which the EC50 was found to be 236 nM.

Compound `Cc1nc(N)c2ccn([C@@H]3O[C@@H]4[C@@H](Oc5ccc6cc(Br)c(N)nc6c5)CC[C@]4(O)[C@H]3O)c2n1` [Example 63, (2R,3R,3aS,6S,6aR)-2-(4-amino-2-methyl-7H-pyrrolo[2,3-d]pynmidin-7-yl)-6-((2-amino-3-bromoquinolin-7-yl)oxy)hexahydro-3aH-cyclopenta[b]furan-3,3a-diol] gave an EC50 of 5.6 nM.

On to `Nc1nc2cc(C[C@@H]3CC[C@@]4(O)[C@@H]3O[C@@H](n3ccc5c(N)nc(F)nc53)[C@@H]4O)ccc2cc1F` [Example 45, (2R,3R,3aS,6S,6aR)-2(4-amino-2-fluoro-7H-pyrrolo[2,3-d]pyrimidin-7-yl)-6-((2-amino-3-fluoroquinolin-7-yl)methyl)hexahydro-3aH-cyclopenta[b]furan-3,3a-diol], for which the 50% effective concentration (EC50) came to 1.2 nM.

In turn, `CC(C)c1ncnc2c1ccn2[C@@H]1O[C@@H]2[C@H](Cc3ccc4cc(Br)c(N)nc4c3)CC[C@]2(O)[C@H]1O` [Example 83, (2R,3R,3aS,6S,6aR)-6-((2-amino-3-bromoquinolin-7-yl)methyl)-2-(4-isopropyl-7H-pyrrolo[2,3-d]pyrimidin-7-yl)hexahydro-3aH-cyclopenta[b]furan-3,3a-diol] displayed an EC50 of 41.1 nM.
